Assay [1] deals with Serotonin N-acetyltransferase (Rattus norvegicus) (UniProt Q64666). Briefly: Inhibition of norepinephrine-stimulated AANAT activity assessed per 10^5 cells in rat pinealocytes at 10 uM. It counts as cell-based.
Assay [2] is described as follows: Inhibition of norepinephrine-stimulated melatonin production assessed per 10^5 cells in rat pinealocytes at 10 uM by radioimmunoassay. The class given is functional.
Assay [3] in a line: Inhibition of norepinephrine-stimulated melatonin production assessed per 10^5 cells in rat pinealocytes at 50 uM by radioimmunoassay. It counts as functional.
Assay [4] has as its target Serotonin N-acetyltransferase (Rattus norvegicus) (UniProt Q64666). As to the kind of experiment: Activity of AANAT assessed as conversion of bis-pivaloyloxymethylene-tryptamine-phosphopantetheine to tryptamine phosphopantetheine in rat pinealocytes after 60 mins. It counts as cell-based.
Assay [5] has the same target. Briefly: Inhibition of norepinephrine-stimulated AANAT activity assessed per 10^5 cells in rat pinealocytes at 50 uM. It counts as cell-based.
For assay [6] the target is unchanged. As to the kind of experiment: Activity of AANAT assessed as conversion of bis-pivaloyloxymethylene-tryptamine-phosphopantetheine to tryptamine phosphopantetheine in rat pinealocytes at […]. The class given is cell-based. To be noted: TDE = time-dependent effect.

Chain of Serotonin N-acetyltransferase (Rattus norvegicus) (Q64666 whole entry): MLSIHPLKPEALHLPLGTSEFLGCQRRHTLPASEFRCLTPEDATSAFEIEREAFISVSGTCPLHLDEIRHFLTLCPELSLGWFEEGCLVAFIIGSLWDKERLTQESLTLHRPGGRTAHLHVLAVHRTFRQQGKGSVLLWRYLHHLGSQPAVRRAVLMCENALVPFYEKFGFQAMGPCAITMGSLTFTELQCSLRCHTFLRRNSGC

On to `CC(C)(C)C(=O)OCOP(=O)(OCOC(=O)C(C)(C)C)OCC(C)(C)[C@@H](O)C(=O)NCCC(=O)NCCSCC(=O)NCCc1c[nH]c2ccccc12`, for which the Activity was 2.2 nmol/h in assay [1], 40% in assay [4], 1.6 nmol/h in assay [5] and “tde” in assay [6]. Also, the Inhibition in assay [2] was 9 pmol; in assay [3] it was 5.7 pmol.

The values above are taken from ChEMBL document CHEMBL1142910, “Enzymatic and cellular study of a serotonin N-acetyltransferase phosphopantetheine-based prodrug” (2007).
